Measurements: patent publication US20250339569A1, “CARBONIC ANHYDRASE IX LIGANDS” (priority 2021, published 2025)
Where two headings read alike, the source gives them in different places. Starred links: 1 amine or outer side, 2 acyl side, 3 side chain; linkers in the order of their positions; H or OH if unused. Positions of bridges follow the written chain, without caps; N, C: chain ends. Non-standard residues stand in square brackets, D forms with d. Residues, ends and D or L forms follow the SMILES beside them. ξ: configuration not given here. *: point of attachment. Phe(3-NHCO(CH2)3SO2NH2) = N[C@@H](Cc1cccc(NC(=O)CCCS(N)(=O)=O)c1)C(=O)O; X3 = O=C(O)CN1CCN(CC(=O)O)CCN(CC(=O)NCCCOCCOCCOCCCN*)CCN(CC(=O)O)CC1; X38 = O=C(Cc1cc(=O)[nH][nH]c1=O)Nc1cccc(C[C@H](N[*:1])C(=O)[*:2])c1; X9 = O=C(CC1NC(=O)NC1=O)Nc1cccc(C[C@H](N[*:1])C(=O)[*:2])c1; DOTA = O=C(O)CN1CCN(CC(=O)O)CCN(CC(=O)*)CCN(CC(=O)O)CC1; X6 = O=C(O)CCC(=O)Nc1cccc(C[C@H](N[*:1])C(=O)[*:2])c1; Phe(3,4-Cl2) = N[C@@H](Cc1ccc(Cl)c(Cl)c1)C(=O)O; Phe(3-CF3) = N[C@@H](Cc1cccc(C(F)(F)F)c1)C(=O)O; ξTrp(7-Me) = Cc1cccc2c(CC(N)C(=O)O)c[nH]c12; Phe(4-NH2) = Nc1ccc(C[C@H](N)C(=O)O)cc1; mXylylene = c1cc(C[*:1])cc(C[*:2])c1; X18 = NS(=O)(=O)c1ccc(C(=O)*)nc1; X2 = O=C(CN1CCC(N[*:1])CC1)[*:2]; X1 = O=C(CN1CCN([*:1])CC1)[*:2]; Suc = O=C(CCC(=O)[*:2])[*:1]; Dap = NC[C@H](N)C(=O)O

How the values were obtained:
[1] = target: T1, CAIX-expressing human HT-29 colorectal cancer cells (Homo sapiens, UniProt Q16790); assay: FACS binding assay (IC50 determination, competition with tracer 3BP-2776 or 3BP-4149); details: FACS binding assay, HT-29 cells, 4° C., 1 hour, read-out: pIC50 category (activity) (converted)
T1 construct: CAIX-expressing human HT-29 colorectal cancer cells; host or cells: HT-29 human colorectal cancer cells
Procedure, shortened: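 HT-29 cells in FACS buffer (PBS, 1% FCS) at 500.000 cells/ml were exposed to compounds competing with a labelled tracer, with biotinylated compounds detected by 1 μg/mL APC-streptavidin for 30 min on ice. APC/Cy5 median fluorescence was read by flow cytometry and IC50 derived by 4PL fit.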

[2] = target: T2, human carbonic anhydrase IX (hCAIX-Fc) (Homo sapiens, UniProt Q16790); assay: Surface plasmon resonance assay with hCAIX-Fc; assay type: binding; details: 25° C.; for t1/2 category (activity): SPR dissociation half-life, hCAIX-Fc; for Kd: SPR, hCAIX-Fc captured, read-out: pKD category (activity) (converted)
T2 construct: purchased SinoBliological (Sino Biological) 10107-H02H
Protocol: Surface plasmon resonance (SPR) studies were performed using a Biacore™ T200 SPR system (GE Healthcare Life Sciences). Briefly, polarized light is directed towards a gold-labeled sensor surface, and minimum intensity reflected light is detected. The angle of reflected light changes as molecules bind and dissociate.
Fc-fusion protein of human carbonic anhydrase IX (hCAIX-Fc, SinoBliological, Cat #10107-H02H) was captured on a Fc-capture chip (Biacore™ CM5 sensor chip coated with ˜300 RU of an Fc-binding peptide). Recombinant carbonic anydrase was diluted in Running Buffer (PBST, 0.1% DMSO) to a final concentration 100 or 200 nM and than flushed over the Fc-capture chip to immobilized ˜1000 RUs.
Stock solutions of test compounds were prepared by dissolving each compound in DMSO. DMSO stock solution were diluted 1:1000 in Running Buffer without DMSO. Further sequencial dilutions were made with Running Buffer containing 0.1% DMSO. SPR binding analyses were performed in Single Cycle Kinetic (SCK) mode at 25° C. Flow cell coated with the Fc-binding peptide only served as reference flowcell. After each SCK run, carbonic andydrase IX was removed with 10 mM glycine buffer, pH 1.5.
In between every three SCK measurements, a blank run with Running Buffer instead of test compound was included to correct for baseline drifts (double blanking methods).
Table 11 describes the protocol steps for Fc-fusion target capturing and assessment of the binding kinetics.
For each test compound, SPR raw data in the form of resonance units (RU) were plotted as sensorgrams using the Biacore™ T200 control software. The signal from the blank sensorgram was subtracted from that of the test compound sensorgram (blank corrected). The blank corrected sensorgram was corrected for baseline drift by subtracting the sensorgram of a SCK run without the test compound (running buffer only). The association rate (kon), dissociation rate (koff), dissociation constant (KD), and t1/2 were calculated from Blank-normalized SPR data using the 1:1 Langmuir binding model from the Biacore™ T200 evaluation software. Raw data and fit results were imported as text files in IDBS. The pKD value (negative decadic logarithm of dissociation constant) was calculated in the IDBS excel template.

[3] = competition with tracer 3BP-4149 (3 nM, Cy5-labeled)
[4] = competition with tracer 3BP-2776 (10 nM, biotin-labeled)

Compound	IC50 [1, 3] [µM]	t1/2 category (activity) [2]	Kd [2] [µM]	IC50 [1, 4] [µM]
CC(C)C[C@@H]1NC(=O)[C@H](Cc2cccc(NC(=O)CCC(=O)O)c2)NC(=O)[C@H](CC(=O)O)NC(=O)[C@H]2CCCN2C(=O)[C@H](CCC(=O)O)NC(=O)[C@@H]2CSCc3cccc(c3)CSC[C@@H](C(N)=O)NC(=O)[C@H](CNC(=O)C[C@H](NC(=O)[C@@H](NC(=O)CN3CCC(NC(=O)CN4CCN(CC(=O)O)CCN(CC(=O)O)CCN(CC(=O)O)CC4)CC3)C(C)C)C(=O)N2)NC(=O)[C@H](Cc2c[nH]c3ccccc23)NC(=O)[C@H]([C@@H](C)O)NC1=O [3BP-4377] ({DOTA}-[X2]VDCE[dP]D[X6]LTW[Dap]C-NH2; lactam 3-12; linker 4-13 via mXylylene)	< 0.01	A (t1/2>15.0 minutes)	< 0.01	
CC(C)C[C@@H]1NC(=O)[C@H](Cc2cccc(NC(=O)Cc3cc(=O)[nH][nH]c3=O)c2)NC(=O)[C@H](CC(=O)O)NC(=O)[C@H]2CCCN2C(=O)[C@H](CCC(=O)O)NC(=O)[C@@H](NC(=O)[C@H](Cc2ccc(O)cc2)NC(=O)[C@@H](NC(=O)CN2CCC(NC(=O)CN3CCN(CC(=O)O)CCN(CC(=O)O)CCN(CC(=O)O)CC3)CC2)C(C)C)CSCc2cccc(c2)CSC[C@@H](C(N)=O)NC(=O)[C@H](CO)NC(=O)[C@H](Cc2c[nH]c3ccccc23)NC(=O)[C@H]([C@@H](C)O)NC1=O [3BP-4322] ({DOTA}-[X2]VYCE[dP]D[X38]LTWSC-NH2; linker 4-13 via mXylylene)	0.01 to 0.0794	B (t1/2 between 5.1 and 15.0 minutes)	< 0.01	
CC(C)C[C@@H]1NC(=O)[C@H](Cc2ccc(NC(=O)c3ccc(S(N)(=O)=O)cn3)cc2)NC(=O)[C@H](CC(=O)O)NC(=O)[C@H]2CCCN2C(=O)[C@H](CCC(=O)O)NC(=O)[C@@H](NC(=O)[C@H](CCC(N)=O)NC(=O)CN2CCN(C(=O)CN3CCN(CC(=O)O)CCN(CC(=O)O)CCN(CC(=O)O)CC3)CC2)CSCc2cccc(c2)CSC[C@@H](C(N)=O)NC(=O)[C@H](CO)NC(=O)[C@H](Cc2c[nH]c3ccccc23)NC(=O)[C@H]([C@@H](C)O)NC1=O [3BP-4480] ({DOTA}-[X1]QCE[dP]D[Phe(4-NH2)](X18)LTWSC-NH2; linker 3-12 via mXylylene)	0.01 to 0.0794	C (t1/2 between 2.1 and 5.0 minutes)	< 0.01	
CC(C)C[C@@H]1NC(=O)[C@H](Cc2c[nH]c3ccccc23)NC(=O)[C@H](CC(=O)O)NC(=O)[C@H]2CCCN2C(=O)[C@H](CCC(=O)O)NC(=O)[C@@H]2CSCc3cccc(c3)CSC[C@@H](C(N)=O)NC(=O)[C@H](CC(=O)NC[C@H](NC(=O)[C@@H](NC(=O)CN3CCC(NC(=O)CN4CCN(CC(=O)O)CCN(CC(=O)O)CCN(CC(=O)O)CC4)CC3)C(C)C)C(=O)N2)NC(=O)[C@H](Cc2c[nH]c3ccccc23)NC(=O)[C@H]([C@@H](C)O)NC1=O [3BP-4176] ({DOTA}-[X2]V[Dap]CE[dP]DWLTWDC-NH2; lactam 3-12; linker 4-13 via mXylylene)		C (t1/2 between 2.1 and 5.0 minutes)	< 0.01	< 0.01
CC(C)C[C@@H]1NC(=O)[C@H](Cc2c[nH]c3ccccc23)NC(=O)[C@H](CC(=O)O)NC(=O)CNC(=O)[C@H](CCC(=O)O)NC(=O)[C@@H](NC(=O)[C@H](Cc2ccc(O)cc2)NC(=O)[C@@H](NC(=O)CCC(=O)NCCCOCCOCCOCCCNC(=O)CN2CCN(CC(=O)O)CCN(CC(=O)O)CCN(CC(=O)O)CC2)C(C)C)CSCc2cccc(c2)CSC[C@@H](C(N)=O)NC(=O)[C@H](CCC(N)=O)NC(=O)[C@H](Cc2c[nH]c3ccccc23)NC(=O)[C@H]([C@@H](C)O)NC1=O [3BP-3328] ({X3-Suc}-VYCEGDWLTWQC-NH2; linker 3-12 via mXylylene)			< 0.01	

The remaining lines, values ahead:

IC50 [1, 3] [µM]	t1/2 category (activity) [2]	Kd [2] [µM]	IC50 [1, 4] [µM]	Compound
0.01 to 0.0794	C (t1/2 between 2.1 and 5.0 minutes)	< 0.01		CC(C)C[C@@H]1NC(=O)[C@H](Cc2cccc(NC(=O)CC3NC(=O)NC3=O)c2)NC(=O)[C@H](CC(=O)O)NC(=O)[C@H]2CCCN2C(=O)[C@H](CCC(=O)O)NC(=O)[C@@H](NC(=O)[C@H](Cc2ccc(O)cc2)NC(=O)[C@@H](NC(=O)CN2CCC(NC(=O)CN3CCN(CC(=O)O)CCN(CC(=O)O)CCN(CC(=O)O)CC3)CC2)C(C)C)CSCc2cccc(c2)CSC[C@@H](C(N)=O)NC(=O)[C@H](CO)NC(=O)[C@H](Cc2c[nH]c3ccccc23)NC(=O)[C@H]([C@@H](C)O)NC1=O (stereo partly drawn) [3BP-4371] ({DOTA}-[X2]VYCE[dP]D[X9]LTWSC-NH2; linker 4-13 via mXylylene)
	B (t1/2 between 5.1 and 15.0 minutes)	< 0.01	< 0.01	Cc1cccc2c(CC3NC(=O)[C@H](CC(=O)O)NC(=O)[C@H]4CCCN4C(=O)[C@H](CCC(=O)O)NC(=O)[C@@H](NC(=O)[C@H](Cc4ccc(O)cc4)NC(=O)[C@@H](NC(=O)CN4CCC(NC(=O)CN5CCN(CC(=O)O)CCN(CC(=O)O)CCN(CC(=O)O)CC5)CC4)C(C)C)CSCc4cccc(c4)CSC[C@@H](C(N)=O)NC(=O)[C@H](CO)NC(=O)[C@H](Cc4c[nH]c5ccccc45)NC(=O)[C@H]([C@@H](C)O)NC(=O)[C@H](CC(C)C)NC3=O)c[nH]c12 (stereo partly drawn) [3BP-4158] ({DOTA}-[X2]VYCE[dP]D[ξTrp(7-Me)]LTWSC-NH2; linker 4-13 via mXylylene)
	A (t1/2>15.0 minutes)	< 0.01	< 0.01	CC(C)C[C@@H]1NC(=O)[C@H](Cc2cccc(NC(=O)CCCS(N)(=O)=O)c2)NC(=O)[C@H](CC(=O)O)NC(=O)[C@H]2CCCN2C(=O)[C@H](CCC(=O)O)NC(=O)[C@@H]2CSCc3cccc(c3)CSC[C@@H](C(N)=O)NC(=O)[C@H](CNC(=O)CC[C@H](NC(=O)CN3CCN(C(=O)CN4CCN(CC(=O)O)CCN(CC(=O)O)CCN(CC(=O)O)CC4)CC3)C(=O)N2)NC(=O)[C@H](Cc2c[nH]c3ccccc23)NC(=O)[C@H]([C@@H](C)O)NC1=O [3BP-4502] ({DOTA}-[X1]ECE[dP]D[Phe(3-NHCO(CH2)3SO2NH2)]LTW[Dap]C-NH2; lactam 2-11; linker 3-12 via mXylylene)
	B (t1/2 between 5.1 and 15.0 minutes)	< 0.01	< 0.01	CC(C)C[C@@H]1NC(=O)[C@H](Cc2c[nH]c3ccccc23)NC(=O)[C@H](CC(=O)O)NC(=O)[C@H]2CCCN2C(=O)[C@H](CCC(N)=O)NC(=O)[C@@H](NC(=O)[C@H](Cc2ccc(O)cc2)NC(=O)[C@@H](NC(=O)CN2CCC(NC(=O)CN3CCN(CC(=O)O)CCN(CC(=O)O)CCN(CC(=O)O)CC3)CC2)C(C)C)CSCc2cccc(c2)CSC[C@@H](C(N)=O)NC(=O)[C@H](CO)NC(=O)[C@H](Cc2c[nH]c3ccccc23)NC(=O)[C@H]([C@@H](C)O)NC1=O [3BP-4104] ({DOTA}-[X2]VYCQ[dP]DWLTWSC-NH2; linker 4-13 via mXylylene)
	B (t1/2 between 5.1 and 15.0 minutes)	< 0.01	< 0.01	CC(C)C[C@@H]1NC(=O)[C@H](Cc2cccc(C(F)(F)F)c2)NC(=O)[C@H](CC(=O)O)NC(=O)[C@H]2CCCN2C(=O)[C@H](CCC(=O)O)NC(=O)[C@@H](NC(=O)[C@H](Cc2ccc(O)cc2)NC(=O)[C@@H](NC(=O)CN2CCC(NC(=O)CN3CCN(CC(=O)O)CCN(CC(=O)O)CCN(CC(=O)O)CC3)CC2)C(C)C)CSCc2cccc(c2)CSC[C@@H](C(N)=O)NC(=O)[C@H](CO)NC(=O)[C@H](Cc2c[nH]c3ccccc23)NC(=O)[C@H]([C@@H](C)O)NC1=O [3BP-4135] ({DOTA}-[X2]VYCE[dP]D[Phe(3-CF3)]LTWSC-NH2; linker 4-13 via mXylylene)
	B (t1/2 between 5.1 and 15.0 minutes)	< 0.01		CC(C)C[C@@H]1NC(=O)[C@H](Cc2ccc(Cl)c(Cl)c2)NC(=O)[C@H](CC(=O)O)NC(=O)[C@H]2CCCN2C(=O)[C@H](CCC(=O)O)NC(=O)[C@@H]2CSCc3cccc(c3)CSC[C@@H](C(N)=O)NC(=O)[C@H](CNC(=O)C[C@H](NC(=O)[C@@H](NC(=O)CN3CCC(NC(=O)CN4CCN(CC(=O)O)CCN(CC(=O)O)CCN(CC(=O)O)CC4)CC3)C(C)C)C(=O)N2)NC(=O)[C@H](Cc2c[nH]c3ccccc23)NC(=O)[C@H]([C@@H](C)O)NC1=O [3BP-4439] ({DOTA}-[X2]VDCE[dP]D[Phe(3,4-Cl2)]LTW[Dap]C-NH2; lactam 3-12; linker 4-13 via mXylylene)
